Source: patent US20120172375A1, “COMPOUNDS AND METHODS OF PROMOTING OLIGODENDROCYTE PRECURSOR DIFFERENTIATION” (priority 2008, published 2012)

Tested on: oligodendrocyte progenitors
Test: Primary/secondary screening: oligodendrocyte progenitor morphology changes and Plp-EGFP fluorescence
Type: cell-based, mouse
Set-up: key to differentiation scale score (cell morphology): 1: bipolar, undifferentiated; 2: bipolar to tripolar, initiated differentiation; 3: multibranched, differentiated cells; 4: multibranched, differentiated cells showing membranous structures
Conditions: 10 μM, 48 hr
Protocol: Oligodendrocyte progenitors were generated from embryonic neural progenitors growing in cell aggregates known as neurospheres (Nphs). Nph were prepared from embryos at 14.5 days of gestation obtained from timed pregnant females of either wild type mice or the proteolipid protein-enhanced-green fluorescence protein (Plp-EGFP) transgenic mouse. In brief, after separation of meninges and cerebellum, cerebrum tissue was mechanically triturated with a 1 ml Gilson pipette until total tissue disaggregation was achieved, filtered through a 70 μm cell strainer (Fisher Scientific, Pittsburg, Pa.) and plated in 25 cm^2 plastic culture flasks (2 brains/flask). Nph proliferation media (NPM) was DMEM/F12, B27 neuronal supplement (Gibco, Baltimore, Md.) and 10 ng/ml EGF (Sigma, St. Louis, Mo.). After 48-72 hr, floating Nphs were passaged at a 1:3 ratio in the same medium every 3-4 days. To generate oligodendrocyte progenitors, single cells suspensions were obtained by chemical disgregation with the mouse NeuroCult dissociation kit (StemCell Technologies, Alberta, Canada). The single cell suspension was filtered through a 70 μm cell strainer and plated on 96-well poly-D-Lysine (PDL)-coated plates at a cell density of 1.5×10^4 cells/cm^2. Cells were maintained in NPM supplemented with 10 ng/ml PDGF/bFGF instead of EGF. Bipolar, oligodendrocyte progenitor cells were observed 24 hours after plating. […]
The small molecule library consists of handcrafted drug-like organic molecules with molecular weight in a range of 250-550, dissolved in DMSO at concentration of 5 mg/ml or […]. Their structure and >95% purity have been validated by NMR. […] Oligodendrocyte progenitor differentiation was scored using as 4 scale values as follows: 1: bipolar, undifferentiated; 2: bipolar to tripolar, initiated differentiation; 3: multibranched, differentiated cells; 4: multibranched, differentiated cells showing membranous structures (FIG. 1).
Differentiation induced by selected compounds was further validated by fluorescence microscopy in cells generated from our Plp-EGFP transgenic mouse. Increased fluorescence in treated oligodendrocyte progenitor was indicative of cell maturation and was again scored following the same scale. […] These were analyzed for cell toxicity assays by MTT were yellow 3-(4,5-Dimethylthiazol-2-yl)-2,5-diphenyltetrazolium bromide, a tetrazole (MTT) is reduced to purple formazan in the mitochondria of living cells, showing a solution color change measurable by OD620-590 (Data not shown). Further oligodendrocyte progenitor maturation in response to selected compounds was assessed by induction of myelin protein expression as determined by immunocytochemistry and western blot. […]

In the case of `CCS(=O)(=O)N1CCN(C(=O)COc2ccc(-c3ccccc3)cc2)CC1` [Compound A, 1-[(4-biphenylyloxy)acetyl]-4-(ethylsulfonyl)piperazine], the “differentiation scale score (cell morphology)” value is reported as 4.
